Reference: PubChem BioAssay (NCI)
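Five compound concentrations were applied to cells in 96-well plates for 48 hours; endpoints were derived by simple linear interpolation of the resulting dose-response curve. TGI is the concentration that stops growth completely.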

Key:
Test in all cases: NCI-60 cell line screen, 48 h
SF-295 CNS = test system: SF-295 CNS
U251 CNS = test system: U251 CNS
MOLT-4 leukemia = test system: MOLT-4 leukemia
NCI/ADR-RES ovarian = test system: NCI/ADR-RES ovarian
RXF 393 renal = test system: RXF 393 renal
786-0 renal = test system: 786-0 renal
UO-31 renal = test system: UO-31 renal
OVCAR-5 ovarian = test system: OVCAR-5 ovarian
OVCAR-4 ovarian = test system: OVCAR-4 ovarian
SK-MEL-28 melanoma = test system: SK-MEL-28 melanoma

Row | SMILES | TGI (SF-295 CNS) [µM] | TGI (U251 CNS) [µM] | TGI (MOLT-4 leukemia) [µM] | TGI (NCI/ADR-RES ovarian) [µM] | TGI (RXF 393 renal) [µM] | TGI (786-0 renal) [µM] | TGI (UO-31 renal) [µM] | TGI (OVCAR-5 ovarian) [µM] | TGI (OVCAR-4 ovarian) [µM] | TGI (SK-MEL-28 melanoma) [µM]
1 | Oc1cc(O)c2c(c1)O[C@H](c1cc(O)c(O)c(O)c1)[C@@H](O)C2 | 73.2 | 34.5 | > 10 | > 100 | 30.7 | 32.8 | 35.9 | 34.8 | 48.7 | > 100
2 | COCCOC(C)C(=O)C(O)S(=O)(=O)O (stereo not given) | > 100 | > 100 | > 100 | > 100 | > 100 | > 100 | > 100 | > 100 | > 100 | > 100
3 | O=C1C(C(c2ccc([N+](=O)[O-])cc2)N2CCOCC2)=C(O)C(c2ccccc2)N1c1ccccc1 (stereo not given) | > 10 | > 10 | > 10 | > 10 | > 10 | > 10 | > 10 | > 10 | > 10 | > 10
4 | CCCCOc1c(C(=O)O)cc(Br)cc1C(=O)O | > 100 | > 100 | > 100 | > 100 | > 100 | > 100 | > 100 | > 100 | > 100 | > 100
5 | CCCCC(=C=C(C)CO)C1CCCN1C(=O)OC(C)(C)C (stereo not given) | 31.7 | 31.7 | 33.8 | 42.5 | 29.4 | 30.5 | 37.7 | 39.9 | 39.3 | 36
6 | Cc1ccc(/C(O)=C/c2nc3cccnc3[nH]c2=O)cc1 | > 100 | > 100 | > 100 | > 100 | 80.1 | > 100 | > 100 | > 100 | > 100 | > 100
7 | CC(=O)OC12CC(C(F)(F)F)(C(F)(F)F)OC1(OC(C)=O)CC(C(F)(F)F)(C(F)(F)F)O2 (stereo not given) | > 100 | 19.2 | 67.6 | > 100 | 77.7 | 12.4 | 13.3 | 90.6 | > 100 | > 100
8 | CC(C)NCC(O)c1ccc(O)c2ncccc12 (stereo not given) | > 100 | > 100 | 46.9 | 92.5 | > 100 | > 100 | > 100 | > 100 | > 100 | > 100
9 | c1ccc(C(c2cccc3c2ccc2ccccc23)C(c2ccccc2)c2cccc3c2ccc2ccccc23)cc1 (stereo not given) | > 100 | > 100 | > 100 | > 100 | > 100 | > 100 | > 100 | > 100 | > 100 | > 100
10 | C/C(=N/NC(=S)N(C)C)c1ccccc1O | > 100 | > 100 | 97.7 | 13.8 | > 100 | > 100 | > 100 | > 100 | > 85 | > 100
11 | Clc1ccc2nc3n[nH]c(Cl)c3nc2c1 | > 100 | > 100 | > 100 | > 100 | > 100 | > 100 | 68.2 | > 100 | > 100 | > 100
12 | CCOC(=O)C1(C#N)C2(C#N)C(N)=NC(ON=C(C)C)(ON=C(C)C)C12C#N (stereo not given) | > 100 | > 100 | > 100 | > 100 | > 100 | > 100 | > 100 | > 100 | > 100 | > 100
13 | COc1cc(NS(C)(=O)=O)ccc1NCc1cnc2ccc3[nH]cccc3c12 | 53.4 | > 81.2 | 22.1 | 62.1 | 21.3 | 54 | 59 | 50.4 | 65.7 | 60.9
14 | COC(=O)c1ccccc1NC(=S)NN(C)C | > 100 | > 100 | > 100 | > 100 | > 100 | > 100 | > 100 | > 100 | > 100 | > 100
15 | CCCCCCCCCC(O)CC(=O)c1c(O)cccc1O (stereo not given) | 39.1 | > 100 | 41.6 | 38.5 | 34.8 | 50.4 | 38.6 | 35.7 | 35.2 | > 100
16 | N#CCCN(CCC#N)c1ccc(/C=C2\SC(=S)NC2=O)cc1 | > 100 | 47 | > 100 | > 100 | > 100 | > 100 | > 100 | > 100 | > 100 | > 100
17 | Nc1ncnc2c1ncn2C1OC(CO)C(O)C1NS(=O)(=O)c1ccccc1 (stereo not given) | > 100 | > 100 | > 100 | > 100 | > 100 | > 100 | > 100 | > 100 | > 100 | > 100
18 | CCNC(=O)NNc1ncnc2c1c(-c1ccc(Cl)cc1)cn2-c1ccc(C)cc1 | 30.5 | 31.3 | 45.4 | 38.4 | 33.1 | 32.8 | 28.3 | 33.5 | 40.8 | 33.3
19 | NC(=S)Nc1ccc2c(c1)oc1ccccc12 | > 100 | > 100 | > 100 | > 100 | > 100 | > 100 | > 100 | > 100 | > 100 | > 100
20 | COc1cc(OCc2nc3cc(C(F)(F)F)ccc3nc2-c2ccccc2)cc(OC)c1OC | > 100 | > 100 | > 100 | > 100 | 65.8 | > 100 | > 100 | > 100 | > 100 | > 100
21 | C=C1C(=O)[C@]23C[C@H]1C[C@@H](O)[C@H]2[C@]1(COC3=O)[C@@H](OC(C)=O)CC[C@@](C)(COC(C)=O)[C@H]1C=O | > 50 | > 50 | 18.2 | > 50 | > 50 | > 50 | > 50 | > 50 | > 50 | > 50
22 | Cc1ccc(S(=O)(=O)/N=C2/N(C)CCCS2(=O)=O)cc1 | > 100 | > 100 | > 100 | > 100 | > 100 | > 100 | > 100 | > 100 | > 100 | > 100
23 | O=S(c1ccccc1)C1CC2CC3(CCC21O)OCCO3 (stereo not given) | > 100 | > 100 | > 100 | > 100 | > 100 | > 100 | > 100 | > 100 | > 100 | > 100
24 | N#C/C(=C/n1c(=S)[nH]c2ccccc21)C(N)=O | > 100 | > 100 | > 100 | > 100 | > 100 | > 100 | > 100 | > 100 | > 100 | > 100
25 | CC(C)(C)c1ccc(O)c(C(c2ccc([N+](=O)[O-])cc2)c2cc(C(C)(C)C)ccc2O)c1 | 3.64 | 4.81 | 5.14 | 7.72 | 3.66 | 3.8 | 3.52 | 3.25 | 3.91 | 3.72
26 | C[C@]12C(=O)C=CCC1=CC[C@@H]1[C@@H]2[C@H]2CC3(O)C(=O)O[C@@]4(C)[C@H]5C[C@@]6(C)[C@@H]7[C@@]2(O)[C@]1(OC[C@H]6C(=O)O5)O[C@]734 (stereo not given in full) | > 100 | > 100 | 90.3 | > 100 | 55.7 | > 100 | > 100 | > 100 | > 100 | > 100
27 | CC(=O)NNC(=S)/N=C\c1c(O)c2ccccc2oc1=O | > 100 | > 100 | > 100 | > 100 | > 100 | > 100 | > 100 | > 100 | > 100 | > 100
28 | COC1=CC(=O)c2c(cc(COP(N)(=O)N(CCCl)CCCl)n2C)C1=O (stereo not given) | 2.82 | 6.77 | 0.382 | 19.8 | 2.95 | 10.9 | 2.65 | 4.21 | 16.3 | 8.83
